Columns and labels:
[1] = test system: prostate cancer (LNCaP and PC-3) and prostate cancer (RC77 T/E and MDA PCa 2b) cell lines; assay: Caspase 3/7 activity-based apoptosis assay, prostate cancer cell lines; parameters: species or system human; details: for apoptosis (caspase 3/7 activity), docetaxel treatment alone: without miRNA mimic/antagomir transfection
Procedure: […] RC77 T/E, a primary prostate cancer cell line derived from a patient, was kindly provided by Dr. Johng Rhim at Center for Prostate Disease Research (CPDR) in Rockville, MD. LNCaP and PC-3 were served as prostate cancer cell line models, and RC77 T/E and MDA PCa 2b were served as prostate cancer cell models in the study. The cells were cultured in specific cell culture media, LNCaP was cultured in RPMI with 10% fetal bovine serum (FBS), PC-3 was cultured in DMEM with 10% FBS, MDA PCa 2b were cultured in BRFF-HPC1 with 20% FBS and RC77 T/E was cultured in Keratinocyte SFM with Human Recombinant Epidermal Growth Factor (EGF 1-53) and Bovine Pituitary Extract (BPE). Cells were maintained at 37° C. in a 5% CO2 incubator. LNCaP, PC-3 and MDA PCa 2b cells were seeded at density 3×10^4 cells/well in 6-well plates. RC77 T/E cells were seeded at density 5×10^4 cells/well in 6-well plates. The cells were allowed to grow for 24 h and then were either transfected with miR-34a-5p mimic, miR-99b-5p mimic, or miR-96-5p antagomir using DharmaFECT4 transfection reagent (Dharmacon), according to the manufacturer's protocol. After 24 h, the cells were replaced with fresh media then incubated for 24 h. miR-34a-5p mimic, miR-99b-5p mimic, miR-96-5p antagomir, and nonsense miRNA mimic and antagomir controls were purchased from Ambion. Nonsense/scrambled miRNA mimic and antagomir were used as negative controls.
For the measurement of apoptosis initiation by transfection of miRNA mimic or antagomir in prostate cancer cells, the transfected cells 5000 cells/well were seeded onto 96-well cell culture plates (Corning) and then incubated overnight. The miRNA mimic/antagomir transfected cells were then treated with vehicle or […] of Docetaxel. 24 h after the vehicle or drug treatment, the apoptosis assays were performed using Apo-ONE Caspase-3/7 Assay Kit (Promega Corporation) according to the protocol described by the manufacturer. 100 μL of homogeneous Caspase-3/7 reagent was added to the sample plate and incubated at room temperature for 1 h. Fluorescence was detected for measuring the apoptosis state (Caspase 3/7 activity) using Biotek Synergy HT Microplate Reader (BioTek) at wavelengths of 499 nm and 521 nm for excitation and emission, respectively.

HIF1A [2] = assay: RT-qPCR of HIF1A expression after miRNA mimic transfection; assay type: cell-based, human; details: African American and European American prostate cancer cells; vs nonsense/scrambled (NS) miRNA control
Procedure: (§1) […] RC77 T/E, a primary prostate cancer cell line derived from a patient, was kindly provided by Dr. Johng Rhim at Center for Prostate Disease Research (CPDR) in Rockville, MD. LNCaP and PC-3 were served as prostate cancer cell line models, and RC77 T/E and MDA PCa 2b were served as prostate cancer cell models in the study. The cells were cultured in specific cell culture media, LNCaP was cultured in RPMI with 10% fetal bovine serum (FBS), PC-3 was cultured in DMEM with 10% FBS, MDA PCa 2b were cultured in BRFF-HPC1 with 20% FBS and RC77 T/E was cultured in Keratinocyte SFM with Human Recombinant Epidermal Growth Factor (EGF 1-53) and Bovine Pituitary Extract (BPE). Cells were maintained at 37° C. in a 5% CO2 incubator. LNCaP, PC-3 and MDA PCa 2b cells were seeded at density 3×10^4 cells/well in 6-well plates. RC77 T/E cells were seeded at density 5×10^4 cells/well in 6-well plates. […]
(§2) For the measurement of gene expression level, total RNA was isolated using miRNeasy Mini Kit (50) (Qiagen) from the prostate cancer cells used in the study. Quantification of total RNA samples were done using NanoVue Plus spectrophotometer (GE Healthcare). […] Reverse transcription was performed using iScript Reverse Transcription Supermix kit (Bio-Rad) to generate cDNA then followed by performing quantitative PCR (qPCR) assays using SsoAdvanced Universal SYBR Green supermix kit (Bio-Rad). […]

IGFBP2 [3] = assay: Western blot of IGFBP2 in transfected prostate cancer cells; assay type: cell-based, human; details: mimic transfected vs NS transfected
Procedure: as §1
(§3) For measurement of the gene expression at protein level, proteins were extracted using M-PER Mammalian Protein Extraction Reagent (Thermo Fisher Scientific) with protease and phosphatase inhibitor cocktail (Thermo Fisher Scientific). Protein concentrations were quantified using BCA assay kit (Thermo Fisher Scientific). […]

[4] = test system: prostate cancer (LNCaP and PC-3) and prostate cancer (RC77 T/E and MDA PCa 2b) cell lines; assay: BrdU-labeling cell proliferation assay; assay type: cell-based, human; details: PC-3, RC77 T/E and MDA PCa 2b, 48 h transfection, vs NS
Procedure: as §1
LNCaP, PC-3, RC77 T/E and MDA PCa 2b cells were seeded at density 3×10^4 cells/well in 6-well culture plates. […] 100 μL of stop solution was used to stop further reaction and followed by checking absorbance at dual wavelengths of 450 nm and 540 nm using Multiskan FC microplate photometer (Thermo Scientific).

IGFBP2 [5] = assay: RT-qPCR of IGFBP2 expression after miRNA mimic transfection; assay type: cell-based, human; details: African American and European American prostate cancer cells; vs nonsense/scrambled (NS) miRNA control
Procedure: as §1, §2

HIF1A [6] = assay: Western blot of HIF1a in transfected prostate cancer cells; assay type: cell-based, human; details: mimic transfected vs NS transfected
Procedure: as §1, §3

PIK3CB = assay: RT-qPCR of PIK3CB expression after miRNA mimic transfection; assay type: cell-based, human; details: African American and European American prostate cancer cells; vs nonsense/scrambled (NS) miRNA control
Procedure: as §1, §2

PI3Kβ = assay: Western blot of PI3Kβ in transfected prostate cancer cells; assay type: cell-based, human; details: mimic transfected vs NS transfected
Procedure: as §1, §3

[7] = RC77 T/E and MDA PCa 2b, 11 mM of Docetaxel, 24 h

Compound	apoptosis (caspase 3/7 activity), docetaxel treatment alone ([1]; LNCaP, 11 mM of Docetaxel, 24 h)	apoptosis (caspase 3/7 activity), docetaxel treatment alone [1, 7]	apoptosis (caspase 3/7 activity), docetaxel treatment alone ([1]; androgen-independent PC-3, 11 mM of Docetaxel, 24 h)	HIF1A expression (RT-qPCR) (HIF1A [2])	IGFBP2 protein level (Western blot) (IGFBP2 [3])	cell proliferation (BrdU labeling) [4]	IGFBP2 expression (RT-qPCR) (IGFBP2 [5])	HIF1a protein level (Western blot) (HIF1A [6])	PIK3CB expression (RT-qPCR) (PIK3CB)	PI3Kβ protein level (Western blot) (PI3Kβ)	docetaxel-induced cytotoxicity (caspase 3/7 activity), combination with docetaxel ([1]; LNCaP cells, 11 mM of Docetaxel, 24 h)	apoptosis (caspase 3/7 activity), transfection in the presence of docetaxel [1, 7]	cell apoptosis (caspase 3/7 activity) compared with NS transfected cells ([1]; absence of docetaxel (vehicle control), LNCaP, PC-3, RC77 T/E, MDA PCa 2b)
CC(=O)O[C@@]12CO[C@@H]1C[C@H](O)[C@@]1(C)C(=O)[C@H](O)C3=C(C)[C@@H](OC(=O)[C@H](O)[C@@H](NC(=O)OC(C)(C)C)c4ccccc4)C[C@@](O)([C@@H](OC(=O)c4ccccc4)[C@H]21)C3(C)C [docetaxel, reference compound]	significantly induced apoptosis	not	not	–	–	–	–	–	–	–	–	–	–
miR-34a-5p mimic: miRNA mimic of miR-34a-5p (SEQ ID NO: 1, UGGCAGUGUCUUAGCUGGUUGU), purchased from Ambion (listed as RNA, chemistry not given here; listed as Homo sapiens)	–	–	–	decreased	downregulated	reduction	decreased	downregulated	decreased	downregulated	further enhanced	significantly induced apoptosis	overall generalized or significant increase
